Values joined by “and” are separate entries in the source; they are usually repeats but may differ in a detail not shown here. Identical values can stand only once. Active and inactive are the calls of the source. How the source made its calls: active means viability on the fitted dose curve at most 10% of control; inactive means the rest.
System: ASPS-1 complex tumor spheroids, viability
Experiment: Anticancer human tumor ASPS-1 cell line growth inhibition;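 further: spheroids exposed to agents for 7 days after 3 days of growth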;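 on viability, T/C: 100% = DMSO vehicle treated spheroids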
Conditions: for viability, T/C: stronger effect = lower value
Description: Multicellular complex tumor spheroid response to DNA repair inhibitors in combination with DNA-damaging drugs
This study explores the anticancer activities of DNA-damaging drugs and inhibitors of DNA damage repair, both as single agents and in combinations. Complex tumor spheroids comprised of malignant cells, endothelial cells and mesenchymal stem cells served as an in vitro model for human solid tumors. This model system incorporates physiologically relevant features and patient-derived or established malignant cell lines with clinically relevant genetic alterations from many tumor types. Twenty-six patient-derived or established malignant cell lines were evaluated representing sarcoma, melanoma, small cell lung cancer (SCLC), non-small cell lung cancer (NSCLC), as well as bladder, ovarian and pancreatic cancers. The concentration ranges selected for each drug and investigational agent were based upon clinically achievable concentrations if the clinical Cmax of the agent was known.
Compounds. The drugs and compounds olaparib (NSC753686), talazoparib (NSC767125), berzosertib (NSC777718), elimusertib (NSC800525), nedisertib (NSC802822), VX-984 (NSC792969), AZD-1390 (NSC803789), temozolomide (NSC362856), topotecan (NSC609699), trabectedin (NSC813783), staurosporine (NSC755774), and gemcitabine (NSC613327) were obtained from the National Cancer Institute (NCI) Developmental Therapeutics Program Chemical Repository. The FDA-approved anticancer drug set is available from the Developmental Therapeutics Program at https://dtp.cancer.gov/organization/dscb/obtaining/available_plates.htm. […] The stock solutions were prepared in dimethyl sulfoxide (DMSO, Sigma-Aldrich, St. Louis, MO, cat. D2650) at 400-fold the tested concentration and stored at -70 degrees C. Prior to their use, the stock solutions were diluted in fresh medium and the final DMSO concentration in the assay was 0.25% (v/v). All drugs and investigational agents were tested over a range starting from a high concentration at or near the clinical Cmax and decreasing in half-log increments. If the clinical Cmax for an agent had not been determined, the highest concentration tested was 10 microM.
Cell Lines. The patient-derived cancer cell (PDC) lines: 156681-154-R-J1-PDC, 283228-195-R-J1-PDC, 287954-098-R-J1-PDC, 292921-168-R-J2-PDC, 349418-098-R-PDC, 425362-245-T-J1-PDC, 556581-035-R-J1-PDC, and BL0293-F563-PDC were received from the NCI Patient-Derived Models Repository (PDMR, https://pdmr.cancer.gov). The established cell lines HS-SY-2 (RRID:CVCL_8719), MPNST, and SYO-1 (RRID:CVCL_7146) were obtained from the Sloan Kettering Institute. The alveolar soft parts sarcoma cell line ASPS-1 (RRID:CVCL_S738) was established at the NCI and grown from internal seed stocks. The following established cell lines were purchased from the American Type Culture Collection (ATCC, Manassas, VA): G-401 (ATCC, cat. CRL-1441, RRID:CVCL_0270), SW982 (ATCC, cat. HTB-93, RRID:CVCL_1734), VA-ES-BJ (ATCC, cat. CRL-2138, RRID:CVCL_1785), NCI-H719 (ATCC, cat. CRL-5837, RRID:CVCL_1582), NCI-H196 (ATCC, cat. CRL-5823, RRID:CVCL_1509), NCI-H841 (ATCC, cat. CRL-5845, RRID:CVCL_1595), NCI-H1618 (ATCC, cat. CRL-5879, RRID:CVCL_1480), NCI-H1876 (ATCC, cat. CRL-5902, RRID:CVCL_1503), DMS 114 (ATCC, cat. CRL-2066; RRID:CVCL_1174), NCI-H211 (ATCC, cat. CRL-5824; RRID:CVCL_1529), and SW 1271 (ATCC, cat. CRL-2177, RRID:CVCL_1716). The small cell lung cancer cell line COR-L88 was purchased from Sigma-Aldrich (cat. 92031917-1VL, RRID:CVCL_1141). The non-small cell lung cancer cell lines NCI-H226 (RRID:CVCL_1544) and NCI-H322M (RRID:CVCL_1557) were established at the NCI and grown from internal seed stocks. Pooled donor human umbilical vein endothelial cells (HUVEC, Lonza, cat. CC-2519) and human mesenchymal stem cells (hMSC, Lonza, cat. PT-2501) were purchased from Lonza (Walkersville, MD).
Cell Culture. All cells were maintained in an incubator at 37 degrees C and 5% CO2 with 95% humidity. […]

[1] = compound alone, run of 11/07/2019
[2] = compound alone, run of 12/16/2019

SMILES	viability, T/C (compound 0.0316 µM)	viability, T/C (compound 0.1 µM)	viability, T/C (compound 0.316 µM)	viability, T/C (compound 1 µM)	viability, T/C (compound 3.16 µM)	viability, T/C (compound 10 µM)	IC50 (curve of compound)	viability, T/C (compound 0.00949 µM)	viability, T/C (compound 0.03 µM)	viability, T/C (compound 0.0949 µM)	viability, T/C (compound 0.3 µM)	viability, T/C (compound 0.949 µM)	viability, T/C (compound 3 µM)	other results
CC(C)n1c(=O)n(C)c2cnc3cc(F)c(-c4ccc(OCCCN5CCCCC5)nc4)cc3c21	95.5% and 110% and 106%	108% (2×) and 107%	103% and 105% and 101%	95.2% and 106% and 100%	93% and 98.2% and 95.5%	63.6% and 56.2% and 38.7%	> 10000 nM and 7970 nM	–	–	–	–	–	–	–
CC1COCCN1c1cc(-c2ccnn2C)c2ccnc(-c3ccn[nH]3)c2n1 (configuration not stated)	85.3% and 92.7% and 83.6%	60.3% and 70.7% and 69.8%	43.5% and 50.8% and 46.5%	37.7% and 46% and 48.2%	42.6% and 45.1% and 48%	39.6% and 46.7% and 44.7%	198 nM and 376 nM and 270 nM	–	–	–	–	–	–	–
CC[C@@]1(O)C(=O)OCc2c1cc1n(c2=O)Cc2cc3c(CN(C)C)c(O)ccc3nc2-1	–	–	–	–	–	–	–	103% [middle of 10 runs]	96.3% [middle of 10 runs]	56.3% [middle of 10 runs]	–	–	–	viability, T/C (compound 0.003 µM): 101% [middle of 10 runs]; IC50 [1]: 222 nM and 160 nM and > 300 nM; IC50 [2]: > 300 nM
CNCc1ccc(-c2cc(-c3nc(-c4ccc(S(=O)(=O)C(C)C)cc4)cnc3N)on2)cc1	–	–	–	–	–	–	545 nM and 644 nM and 783 nM	107% and 103% and 105%	102% and 113% and 112%	97.4% and 108% and 96.5%	58.1% and 74.3% and 76.5%	40.4% and 38.1% and 45.4%	9.11% and 6.66% and 18%	–
COc1cc(C)[nH]c(=O)c1CN1CCc2c(Cl)cc(C(OC)C3COC3)c(Cl)c2C1=O (configuration not stated)	105% and 103% and 99%	108% and 106% and 105%	107% and 102% and 100%	106% and 97.9% and 96.5%	104% and 102% and 98%	99.3% and 104% and 97.8%	> 10000 nM	–	–	–	–	–	–	–
COc1cc2c(cc1O)CCNC21CSC2c3c(OC(C)=O)c(C)c4c(c3C(COC1=O)N1C(O)C3Cc5cc(C)c(OC)c(O)c5C(C21)N3C)OCO4 (configuration not stated)	–	–	–	–	–	–	–	–	–	–	–	–	–	viability, T/C (compound 30 pM): 103% [middle of 10 runs]; viability, T/C (compound 94.9 pM): 103% [middle of 10 runs]; viability, T/C (compound 0.0003 µM): 92.7% [middle of 10 runs]; viability, T/C (compound 0.000949 µM): 71.9% [middle of 10 runs]; viability, T/C (compound 0.003 µM): 23% [middle of 10 runs]; IC50 [2]: 1.63 nM [middle of 10 runs]
COc1ccc([C@@H](O)c2cc(-c3ncnc4cc(N5CCOCC5)ccc34)c(F)cc2Cl)nn1	108% and 103% (2×)	95.8% and 109% and 111%	103% and 102% and 94.3%	90.4%	77.3% and 89.6% and 84.7%	49.6% and 58.1% and 50.4%	9890 nM and > 10000 nM	–	–	–	–	–	–	outcome (compound 1 µM): inactive
Cc1cc(C)c(CNC(=O)c2cc(-c3ccc(CN4CCOCC4)cc3)cc3c2cnn3C2CCCC2)c(=O)[nH]1	103% and 100% and 101%	103% (2×) and 102%	103% and 92.5% and 99.4%	105% and 93.1% and 101%	96.7% and 94.2% and 93.3%	79.3% and 80.4% and 80.8%	> 10000 nM	–	–	–	–	–	–	–
Cc1sc2c(c1C)C(c1ccc(Cl)cc1)=NC(CC(=O)Nc1ccc(O)cc1)c1nnc(C)n1-2 (configuration not stated)	–	–	–	–	–	–	> 3000 nM	102% and 110% and 107%	103% and 111% and 108%	103% and 111% and 109%	108% and 105% and 100%	97.8% and 101% and 94.3%	90.6% and 87.9% and 83.7%	–
Cn1ncnc1[C@H]1c2n[nH]c(=O)c3cc(F)cc(c23)N[C@@H]1c1ccc(F)cc1	–	–	–	–	–	–	> 3000 nM	96.5% and 101%	105% (2×) and 98.6%	102% (2×) and 96.3%	102% and 95.5% and 98.4%	101% and 97.7% and 91.2%	88.4% and 86% and 72.1%	outcome (compound 0.00949 µM): inactive
Cn1nnc2c(C(N)=O)ncn2c1=O	–	–	–	98.1% [middle of 10 runs]	103% [middle of 10 runs]	92% [middle of 10 runs]	–	–	–	–	–	–	–	viability, T/C (compound 31.6 µM): 81% [middle of 10 runs]; viability, T/C (compound 100 µM): 70.1% [middle of 10 runs]; IC50 [1]: > 100000 nM
O=C(c1cc(Cc2n[nH]c(=O)c3ccccc23)ccc1F)N1CCN(C(=O)C2CC2)CC1	–	–	–	–	–	–	> 30000 nM	–	–	97.9% and 107% and 106%	95% and 115% and 111%	95.6% and 107% and 108%	101% and 108% and 102%	viability, T/C (compound 9.49 µM): 101% and 111% and 103%; viability, T/C (compound 30 µM): 89.2% and 97.1% and 60.3%
[2H]c1nc(C)nc([2H])c1-c1cc(NC[C@@H](C)c2cccc3c(C(=O)NC)ccnc23)ncn1	107% and 101% and 102%	108% and 104%	108% and 104%	106% and 113% and 95.1%	103% and 107% and 100%	97.9% and 101% and 95.2%	> 10000 nM	–	–	–	–	–	–	outcome (compound 0.1 µM): inactive; outcome (compound 0.316 µM): inactive

Source: PubChem BioAssay AID1845200 (Molecular Pharmacology Branch, DTP, NCI, 2023)
